Experimental data taken from ChEMBL document CHEMBL1126615, “Structure-activity relationships in prazosin-related compounds. 2. Role of the piperazine ring on alpha-blocking activity” (J Med Chem, 1993).

Columns and labels:
[1] = The alpha1/alpha2 selectivity ratio is the antilog of the difference between pA2 values at alpha1 and alpha-2 adrenoceptor; format: functional
[2] = biological target: T1, Adrenergic receptor alpha-2 (Rattus norvegicus, UniProt P22086+P19328+P22909); assay: Alpha-2 Adrenoceptor blocking activity as antagonism of clonidine-induced depression of field-stimulated prostatic rat vas deferens; format: functional, tissue-based
T1 sequence (P22086 whole entry): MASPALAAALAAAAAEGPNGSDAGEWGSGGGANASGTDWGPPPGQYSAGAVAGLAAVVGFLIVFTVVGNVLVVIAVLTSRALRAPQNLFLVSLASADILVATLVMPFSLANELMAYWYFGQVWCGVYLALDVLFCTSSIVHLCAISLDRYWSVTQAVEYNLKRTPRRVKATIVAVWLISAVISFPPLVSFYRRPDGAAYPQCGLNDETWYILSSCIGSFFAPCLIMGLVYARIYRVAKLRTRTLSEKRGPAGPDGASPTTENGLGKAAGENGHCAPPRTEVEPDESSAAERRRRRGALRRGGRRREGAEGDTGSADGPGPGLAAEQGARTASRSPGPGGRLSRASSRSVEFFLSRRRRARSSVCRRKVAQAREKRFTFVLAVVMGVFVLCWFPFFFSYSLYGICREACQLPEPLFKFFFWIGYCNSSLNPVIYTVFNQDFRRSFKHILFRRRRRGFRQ
T1 sequence (P19328 whole entry): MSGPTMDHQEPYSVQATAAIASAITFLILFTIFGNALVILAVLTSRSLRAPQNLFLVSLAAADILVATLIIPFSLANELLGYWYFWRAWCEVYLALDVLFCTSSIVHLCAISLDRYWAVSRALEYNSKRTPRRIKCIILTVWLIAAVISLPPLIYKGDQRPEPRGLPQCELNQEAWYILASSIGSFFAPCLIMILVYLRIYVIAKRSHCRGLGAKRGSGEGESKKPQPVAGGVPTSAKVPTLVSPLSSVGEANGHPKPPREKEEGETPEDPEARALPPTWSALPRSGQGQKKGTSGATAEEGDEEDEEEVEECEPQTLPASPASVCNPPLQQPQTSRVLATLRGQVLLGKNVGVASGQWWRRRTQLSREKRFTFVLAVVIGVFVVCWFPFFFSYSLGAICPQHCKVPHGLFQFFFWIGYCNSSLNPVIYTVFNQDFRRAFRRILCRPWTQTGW
T1 sequence (P22909 whole entry): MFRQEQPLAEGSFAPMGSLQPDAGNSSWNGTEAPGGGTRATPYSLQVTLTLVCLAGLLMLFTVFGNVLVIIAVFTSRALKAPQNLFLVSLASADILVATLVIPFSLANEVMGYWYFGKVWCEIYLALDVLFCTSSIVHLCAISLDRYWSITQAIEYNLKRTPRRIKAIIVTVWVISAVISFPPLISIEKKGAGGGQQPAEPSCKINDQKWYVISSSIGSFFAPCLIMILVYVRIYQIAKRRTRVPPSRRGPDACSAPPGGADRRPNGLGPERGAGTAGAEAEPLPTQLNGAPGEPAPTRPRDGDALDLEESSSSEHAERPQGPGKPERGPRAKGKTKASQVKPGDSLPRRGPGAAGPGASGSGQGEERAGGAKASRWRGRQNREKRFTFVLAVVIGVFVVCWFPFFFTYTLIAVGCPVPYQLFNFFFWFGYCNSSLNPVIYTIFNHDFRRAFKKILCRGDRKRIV

[3] = biological target: T2, Adrenergic receptor alpha-1 (Rattus norvegicus, UniProt P15823+P23944+P43140); assay: Alpha-1 Adrenoceptor blocking activity as antagonism of norepinephrine-induced contractions of epididymal portion of rat vas deferens; format: functional, tissue-based
T2 sequence (P15823 whole entry): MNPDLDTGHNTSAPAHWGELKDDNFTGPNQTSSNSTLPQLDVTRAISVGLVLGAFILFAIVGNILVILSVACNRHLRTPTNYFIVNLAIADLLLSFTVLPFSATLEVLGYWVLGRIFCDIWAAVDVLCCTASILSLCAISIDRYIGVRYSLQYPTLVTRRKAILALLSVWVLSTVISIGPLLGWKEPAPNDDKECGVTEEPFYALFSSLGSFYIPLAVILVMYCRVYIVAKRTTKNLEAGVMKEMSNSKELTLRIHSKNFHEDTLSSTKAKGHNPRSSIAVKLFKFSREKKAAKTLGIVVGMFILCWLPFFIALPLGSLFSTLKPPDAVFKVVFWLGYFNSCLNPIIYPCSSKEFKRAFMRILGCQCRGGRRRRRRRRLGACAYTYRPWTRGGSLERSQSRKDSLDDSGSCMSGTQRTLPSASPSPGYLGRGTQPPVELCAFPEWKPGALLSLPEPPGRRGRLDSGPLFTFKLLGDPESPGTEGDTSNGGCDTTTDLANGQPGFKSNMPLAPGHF
T2 sequence (P23944 whole entry): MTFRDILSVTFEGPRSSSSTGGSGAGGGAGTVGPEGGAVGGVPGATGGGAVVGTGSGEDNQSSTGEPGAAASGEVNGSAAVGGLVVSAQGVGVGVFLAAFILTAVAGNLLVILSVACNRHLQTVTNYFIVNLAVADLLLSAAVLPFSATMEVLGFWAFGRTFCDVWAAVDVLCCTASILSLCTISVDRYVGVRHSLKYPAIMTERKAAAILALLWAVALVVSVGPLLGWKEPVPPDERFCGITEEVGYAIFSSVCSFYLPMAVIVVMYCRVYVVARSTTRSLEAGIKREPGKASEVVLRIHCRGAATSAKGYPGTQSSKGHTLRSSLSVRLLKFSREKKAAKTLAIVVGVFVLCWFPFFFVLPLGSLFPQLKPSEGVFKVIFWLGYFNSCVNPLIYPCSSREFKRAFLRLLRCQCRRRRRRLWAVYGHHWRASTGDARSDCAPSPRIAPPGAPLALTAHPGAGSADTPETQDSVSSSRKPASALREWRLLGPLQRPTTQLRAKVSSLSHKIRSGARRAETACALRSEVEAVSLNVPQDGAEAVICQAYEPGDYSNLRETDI
T2 sequence (P43140 whole entry): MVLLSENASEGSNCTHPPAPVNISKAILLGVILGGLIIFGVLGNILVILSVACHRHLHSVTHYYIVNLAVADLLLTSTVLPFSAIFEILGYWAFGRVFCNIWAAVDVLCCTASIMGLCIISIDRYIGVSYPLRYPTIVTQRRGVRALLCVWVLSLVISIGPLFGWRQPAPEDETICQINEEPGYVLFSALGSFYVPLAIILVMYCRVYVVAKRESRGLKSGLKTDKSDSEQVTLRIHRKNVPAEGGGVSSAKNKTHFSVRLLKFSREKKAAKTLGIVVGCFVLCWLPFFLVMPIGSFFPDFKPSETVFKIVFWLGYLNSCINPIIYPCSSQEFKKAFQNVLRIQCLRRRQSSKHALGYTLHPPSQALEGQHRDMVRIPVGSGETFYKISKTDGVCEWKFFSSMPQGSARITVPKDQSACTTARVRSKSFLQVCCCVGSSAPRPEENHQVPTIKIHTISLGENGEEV

Structure (SMILES) | pA2 [2] | pA2 [3] | Selectivity ratio [1]
COc1cc2nc(N(C)CCCCCCN(C)C(=O)c3ccco3)nc(N)c2cc1OC | – | – | 120
COc1cc2nc(NC3CCCCC3NC(=O)c3ccco3)nc(N)c2cc1OC (cis isomer) [listing 2 of 2 here] | – | – | 0.6
COc1cc2nc(N(C)[C@@H]3CCCCC3N(C)C(=O)c3ccco3)nc(N)c2cc1OC (stereo in doubt; 5) [listing 1 of 2 here] | 5.41 | 5.8 | –
COc1cc2nc(N(C)[C@@H]3CCCCC3N(C)C(=O)c3ccco3)nc(N)c2cc1OC (stereo in doubt; 5) [listing 2 of 2 here] | – | – | 2.5
COc1cc2nc(N(C)[C@@H]3CCCCC3N(C)C(=O)c3ccco3)nc(N)c2cc1OC (stereo in doubt; 6) [listing 1 of 2 here] | 5.54 | 5.64 | –
COc1cc2nc(N(C)[C@@H]3CCCCC3N(C)C(=O)c3ccco3)nc(N)c2cc1OC (stereo in doubt; 6) [listing 2 of 2 here] | – | – | 1.2
COc1cc2nc(N3CCN(C(=O)c4ccco4)C(C)[C@H]3C)nc(N)c2cc1OC (stereo in doubt; 9) [listing 2 of 2 here] | – | – | 220
COc1cc2nc(N3CCN(C(=O)c4ccco4)C(C)[C@H]3C)nc(N)c2cc1OC (stereo in doubt; 10) [listing 2 of 2 here] | – | – | 180
CCC1[C@@H](CC)N(c2nc(N)c3cc(OC)c(OC)cc3n2)CCN1C(=O)c1ccco1 (stereo in doubt; 11) [listing 2 of 2 here] | – | – | 440
CCC1[C@@H](CC)N(c2nc(N)c3cc(OC)c(OC)cc3n2)CCN1C(=O)c1ccco1 (stereo in doubt; 12) [listing 2 of 2 here] | – | – | 110
COc1cc2nc(NC3CCCCC3NC(=O)c3ccco3)nc(N)c2cc1OC (trans isomer) [listing 2 of 2 here] | – | – | 11

Second part, led by results:

pA2 [2] | pA2 [3] | Structure (SMILES) | Selectivity ratio [1]
5.23 | 8.61 | COc1cc2nc(N3CCN(C(=O)c4ccco4)C(C)C3)nc(N)c2cc1OC (stereo not drawn) | 2100
5.94 | 8.13 | COc1cc2nc(N3CCN(C(=O)c4ccco4)C[C@H]3C)nc(N)c2cc1OC | 150
5.96 | 5.74 | COc1cc2nc(NC3CCCCC3NC(=O)c3ccco3)nc(N)c2cc1OC (cis isomer) [listing 1 of 2 here] | –
6.41 | 8.75 | COc1cc2nc(N3CCN(C(=O)c4ccco4)C(C)[C@H]3C)nc(N)c2cc1OC (stereo in doubt; 9) [listing 1 of 2 here] | –
4.86 | 7.12 | COc1cc2nc(N3CCN(C(=O)c4ccco4)C(C)[C@H]3C)nc(N)c2cc1OC (stereo in doubt; 10) [listing 1 of 2 here] | –
5.91 | 8.55 | CCC1[C@@H](CC)N(c2nc(N)c3cc(OC)c(OC)cc3n2)CCN1C(=O)c1ccco1 (stereo in doubt; 11) [listing 1 of 2 here] | –
5.05 | 7.09 | CCC1[C@@H](CC)N(c2nc(N)c3cc(OC)c(OC)cc3n2)CCN1C(=O)c1ccco1 (stereo in doubt; 12) [listing 1 of 2 here] | –
5.08 | – | COc1cc2nc(N3CCN(C(=O)c4ccco4)C4CCCC[C@@H]43)nc(N)c2cc1OC (stereo in doubt; 13) | –
5.15 | – | COc1cc2nc(N3CCN(C(=O)c4ccco4)C4CCCC[C@@H]43)nc(N)c2cc1OC (stereo in doubt; 14) | –
5.04 | 6.07 | COc1cc2nc(NC3CCCCC3NC(=O)c3ccco3)nc(N)c2cc1OC (trans isomer) [listing 1 of 2 here] | –
